# Measured values from the supplement of paper PMC11451515.
# Tested on: NOMO1
# Experiment: cell viability relative to DMSO control; higher = less cytotoxic
# Conditions: 48 h
# Summary of the method: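 Viability was expressed as a per-plate percentage of DMSO wells, with cell-free wells as background. Leukemia cells (NOMO1 or SEM at 500 cells/well, P12-Ichikawa at 1000 cells/well) were adapted for at least four passages in each medium and seeded in 1536-well plates (5 μl). Library compounds in DMSO were pin-dosed over an 11-point threefold series from 47 μM to 0.79 nM, and CellTiter-Glo One luminescence was read after 48 h at 37°C.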
# [1] = HPLM + 10% dialyzed FBS, 0.000781 µM
# [2] = HPLM + 10% dialyzed FBS, 0.00234 µM
# [3] = HPLM + 10% dialyzed FBS, 0.00702 µM
# [4] = HPLM + 10% dialyzed FBS, 0.0211 µM
# [5] = HPLM + 10% dialyzed FBS, 0.0632 µM
# [6] = HPLM + 10% dialyzed FBS, 0.19 µM
# [7] = HPLM + 10% dialyzed FBS, 0.569 µM
# [8] = HPLM + 10% dialyzed FBS, 1.71 µM
# [9] = HPLM + 10% dialyzed FBS, 5.12 µM
# [10] = HPLM + 10% dialyzed FBS, 15.4 µM
# [11] = HPLM + 10% dialyzed FBS, 46.1 µM
# [12] = RPMI 5 mM glucose + 10% FBS, 0.000781 µM
# [13] = RPMI 5 mM glucose + 10% FBS, 0.00234 µM
# [14] = RPMI 5 mM glucose + 10% FBS, 0.00702 µM
# [15] = RPMI 5 mM glucose + 10% FBS, 0.0211 µM
# [16] = RPMI 5 mM glucose + 10% FBS, 0.0632 µM
# [17] = RPMI 5 mM glucose + 10% FBS, 0.19 µM
# [18] = RPMI 5 mM glucose + 10% FBS, 0.569 µM
# [19] = RPMI 5 mM glucose + 10% FBS, 1.71 µM
# [20] = RPMI 5 mM glucose + 10% FBS, 5.12 µM
# [21] = RPMI 5 mM glucose + 10% FBS, 15.4 µM
# [22] = RPMI 5 mM glucose + 10% FBS, 46.1 µM
# [23] = RPMI 5 mM glucose + 10% dialyzed FBS, 0.000781 µM
# [24] = RPMI 5 mM glucose + 10% dialyzed FBS, 0.00234 µM
# [25] = RPMI 5 mM glucose + 10% dialyzed FBS, 0.00702 µM
# [26] = RPMI 5 mM glucose + 10% dialyzed FBS, 0.0211 µM
# [27] = RPMI 5 mM glucose + 10% dialyzed FBS, 0.0632 µM
# [28] = RPMI 5 mM glucose + 10% dialyzed FBS, 0.19 µM
# [29] = RPMI 5 mM glucose + 10% dialyzed FBS, 0.569 µM
# [30] = RPMI 5 mM glucose + 10% dialyzed FBS, 1.71 µM
# [31] = RPMI 5 mM glucose + 10% dialyzed FBS, 5.12 µM
# [32] = RPMI 5 mM glucose + 10% dialyzed FBS, 15.4 µM
# [33] = RPMI 5 mM glucose + 10% dialyzed FBS, 46.1 µM
SMILES,cell viability [1] [%],cell viability [2] [%],cell viability [3] [%],cell viability [4] [%],cell viability [5] [%],cell viability [6] [%],cell viability [7] [%],cell viability [8] [%],cell viability [9] [%],cell viability [10] [%],cell viability [11] [%],cell viability [12] [%],cell viability [13] [%],cell viability [14] [%],cell viability [15] [%],cell viability [16] [%],cell viability [17] [%],cell viability [18] [%],cell viability [19] [%],cell viability [20] [%],cell viability [21] [%],cell viability [22] [%],cell viability [23] [%],cell viability [24] [%],cell viability [25] [%],cell viability [26] [%],cell viability [27] [%],cell viability [28] [%],cell viability [29] [%],cell viability [30] [%],cell viability [31] [%],cell viability [32] [%],cell viability [33] [%]
C[C@](Cc1c[nH]c2ccccc12)(NC(=O)OC1C2CC3CC(C2)CC1C3)C(=O)NC[C@H](NC(=O)CCC(=O)O)c1ccccc1 (stereo partly drawn),123,94,130,135,148,142,134,145,157,154,141,114,128,120,126,120,127,125,126,151,153,147,106,123,120,132,132,133,153,129,139,147,153
CCOC(=O)N1CCN(/[N+]([O-])=N/Oc2ccc([N+](=O)[O-])cc2C#N)CC1,118,99.3,109,110,135,114,117,97.1,39.5,39.6,36.1,98.4,97.4,114,105,102,105,122,120,24.5,24.6,18.2,92.8,106,129,111,126,115,118,108,30.8,24.6,18.3
COc1cc(F)c(F)c(Nc2ccc(I)cc2F)c1N[S+](=O)([O-])C1(C[C@H](O)CO)CC1,111,119,117,113,116,113,101,113,99.3,91.8,57,104,95.3,94.9,99.4,99.5,102,92.5,111,93.2,87.9,86.5,112,110,109,115,108,106,110,122,106,88.8,71.9
CNCCCC12CCC(c3ccccc31)c1ccccc12,106,102,107,110,111,99.9,101,90,95.2,63.5,18.3,104,94.9,92.2,97.2,95.2,84.4,85.8,98.3,79.2,80.9,60.6,94.5,87.9,88.2,106,91.6,91,85.1,94,76.2,74.4,38.4
CC1=C(C)C(=O)C(C(CCCCCC(=O)O)c2ccccc2)=C(C)C1=O (stereo not drawn),75.8,78.1,83.4,93.9,93.6,109,53.4,97.9,27.8,27.1,13.5,68,82.7,70.7,74.7,74.9,79.3,76.1,80.4,19.6,22.3,12.5,75.6,78.9,75,87.7,83.7,84.2,86.4,78,25.1,27.4,15
O=C(C=CC#Cc1cccc(N[S+](=O)([O-])c2ccccc2)c1)NO,116,121,116,131,137,142,126,107,36.1,7.6,3.17,124,123,109,138,119,129,135,117,41.9,7.03,3.62,,,,,,,,,,,
CC(C)c1ccc2c(c1)c(SC(C)(C)C)c(CC(C)(C)C(=O)[O-])n2Cc1ccc(Cl)cc1,110,98.7,110,104,109,101,111,95,82,95.1,87.8,84.2,103,92.8,90.4,88.9,96.9,105,87.9,86.3,85.4,85.1,90.5,91.5,91.9,91.6,81.5,87.7,79,81.4,78.5,81.6,75.5
COC\1=C(/OC)C(=O)\C(=C(C)/C1=O)CCCCCCCCCCO,97.4,132,118,148,114,134,153,154,148,122,61.6,,,,,,,,,,,,,,,,,,,,,,
S=C(NCc1ccc2c(c1)OCO2)N1CCN(c2ncnc3c2oc2ccccc23)CC1,110,113,124,104,105,98.2,113,105,75.7,64.1,9.67,117,120,116,110,114,111,109,98.2,104,80,26.2,116,106,119,107,112,107,112,97.1,95.8,89,48.8
NNCCc1ccccc1,109,133,119,131,112,115,108,118,111,60,30.4,117,132,122,117,124,117,115,114,114,103,21.2,116,116,129,107,125,121,122,109,109,114,75
CCCCC(=O)O[C@]1(C(=O)CO)[C@H](C)C[C@H]2[C@@H]3CCC4=CC(=O)C=C[C@]4(C)[C@@]3(F)[C@@H](O)C[C@@]21C,122,129,124,135,131,124,127,122,123,123,116,,,,,,,,,,,,,,,,,,,,,,
COC(=O)Nc1cc(Nc2cc(NC3CC3)c3ncc(C#N)n3n2)c(Cl)c(N2CCN(C)CC2)c1,117,114,104,107,108,112,93.7,86.7,64.5,45.6,4.67,88.7,112,108,110,93.3,110,84.5,89.7,57.6,30.1,4.34,104,98.2,99.4,94.3,93,106,85.3,66.9,45.1,34.5,3.22
COc1ccccc1OCC(O)COC(N)=O (stereo not drawn),79.5,104,108,119,127,116,122,119,130,125,6.3,102,98.1,102,113,109,98,119,103,114,119,113,94.7,109,111,105,116,119,102,107,122,108,100
C[C@H]1COC2=C3N1\C=C(C(O)=O)/C(=O)C3=CC(=C2N4CCN(C)CC4)F,124,123,128,114,122,106,113,108,94.8,85.9,61,,,,,,,,,,,,122,112,127,124,124,115,112,112,98.1,98.7,72.9
O=C1[C@H](Cc2ccc(O)cc2)N2C(=O)CCN(C(=O)NCc3ccccc3)[C@H]2CN1Cc1cccc2ccccc12,86.9,82.6,88.9,97.3,92.1,78.6,86.3,85,74.9,18.3,74,81.7,78.7,86.9,81,83.1,73.9,83.7,73.5,73.1,10.6,81.1,76.7,89.9,89.5,104,92.5,89.5,84.2,82.7,79.2,13.7,82.8
COC(=O)C[C@](O)(CCCC(C)(C)O)C(=O)O[C@@H]1C(OC)=CC23CCCN2CCc2cc4c(cc2[C@H]13)OCO4 (stereo partly drawn),114,111,105,108,118,107,117,97.1,96,105,96.6,97.1,93.4,96.3,102,107,98.4,105,101,88.4,93.6,90.1,102,105,104,111,108,109,101,100,102,103,97.8
c1ccc2[nH]c(-c3cscn3)nc2c1,122,113,136,121,133,135,122,133,107,102,90.8,,,,,,,,,,,,,,,,,,,,,,
